Source: patent US8748452B2, “Indolizine derivative and use thereof for medical purposes” (Kissei Pharmaceutical Co., Ltd., priority 2009, dated 2014)

Legend:
[1] = target: T1, Xanthine oxidase (from bovine milk, Sigma) (Bos taurus, UniProt P80457); assay: Xanthine oxidase inhibitory activity; assay type: biochemical; details: xanthine oxidase from bovine milk 0.02 units/mL, xanthine 200 μM, 10 minutes at room temperature, absorbance at 290 nm
T1 construct: Xanthine oxidase (from bovine milk, Sigma); purchased Sigma; host or cells: bovine milk
T1 sequence (P80457 whole entry): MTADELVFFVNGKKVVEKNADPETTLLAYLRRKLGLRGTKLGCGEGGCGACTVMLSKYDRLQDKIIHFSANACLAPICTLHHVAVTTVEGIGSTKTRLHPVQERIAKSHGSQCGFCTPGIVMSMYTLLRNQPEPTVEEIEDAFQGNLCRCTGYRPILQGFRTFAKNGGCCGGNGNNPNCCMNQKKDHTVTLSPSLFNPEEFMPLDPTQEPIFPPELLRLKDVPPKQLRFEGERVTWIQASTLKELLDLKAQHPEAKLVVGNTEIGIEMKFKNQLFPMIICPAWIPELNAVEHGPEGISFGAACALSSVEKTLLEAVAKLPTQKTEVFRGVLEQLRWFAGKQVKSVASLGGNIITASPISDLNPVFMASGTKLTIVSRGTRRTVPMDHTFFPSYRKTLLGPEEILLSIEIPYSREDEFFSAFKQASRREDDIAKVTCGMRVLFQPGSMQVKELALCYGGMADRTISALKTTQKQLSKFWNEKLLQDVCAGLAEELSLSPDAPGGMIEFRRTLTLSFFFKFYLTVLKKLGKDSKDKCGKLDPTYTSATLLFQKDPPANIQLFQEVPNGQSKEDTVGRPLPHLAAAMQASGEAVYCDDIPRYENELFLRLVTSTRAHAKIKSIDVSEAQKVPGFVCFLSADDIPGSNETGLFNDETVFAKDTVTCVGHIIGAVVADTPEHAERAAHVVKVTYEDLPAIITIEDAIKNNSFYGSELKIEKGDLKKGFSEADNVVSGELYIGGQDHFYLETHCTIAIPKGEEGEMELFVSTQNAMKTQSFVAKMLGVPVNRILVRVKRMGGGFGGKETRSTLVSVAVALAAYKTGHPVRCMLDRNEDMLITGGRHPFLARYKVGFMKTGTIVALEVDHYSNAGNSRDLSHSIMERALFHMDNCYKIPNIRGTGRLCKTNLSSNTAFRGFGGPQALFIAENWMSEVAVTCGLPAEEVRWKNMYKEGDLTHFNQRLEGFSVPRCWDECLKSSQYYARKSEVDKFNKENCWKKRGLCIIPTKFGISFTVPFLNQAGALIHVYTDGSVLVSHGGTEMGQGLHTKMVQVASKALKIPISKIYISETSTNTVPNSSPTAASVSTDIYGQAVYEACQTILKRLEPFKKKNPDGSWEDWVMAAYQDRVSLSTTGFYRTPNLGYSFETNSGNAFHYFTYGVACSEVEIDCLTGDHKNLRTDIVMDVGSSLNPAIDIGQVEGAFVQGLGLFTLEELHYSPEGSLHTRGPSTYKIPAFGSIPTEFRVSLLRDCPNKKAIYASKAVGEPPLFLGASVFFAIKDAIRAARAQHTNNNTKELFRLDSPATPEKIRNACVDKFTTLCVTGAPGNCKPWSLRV
Protocol: (1) Preparation of test compounds
Test compounds were dissolved in DMSO (Wako pure chemical) at 40 mM concentration and then diluted to intended concentrations with phosphate-buffered saline (PBS).
(2) Method for measurement
Xanthine oxidase (from bovine milk, Sigma) was prepared with phosphate-buffered saline (PBS) at 0.02 units/mL, and then the solution was added to 96 well plates at 50 μL/well. In addition, test compounds diluted with PBS were added at 50 μL/well. Xanthine (Wako pure chemical) at 200 μM prepared with PBS was added at 100 μL/well, and the mixture was reacted for 10 minutes at room temperature. Absorbance at 290 nm was measured using a microplate reader SpectraMax Plus 384 (Molecular device). The absorbance under a condition without xanthine is 0%, and control without test compounds is 100%. Fifty % inhibitory concentration (IC50) of test compounds was calculated (Table 17). Ex. No. in the table indicates Example number.

human URAT1 = target: T2, human URAT1 (Homo sapiens, UniProt Q96S37); assay: Inhibitory activity of uric acid transport with human URAT1 expressing cells; assay type: cell-based; details: COS-7; concentration of 10 μM; 14C-labeled uric acid 20 μM, 5 minutes uptake, COS7 cells transiently expressing human URAT1
T2 construct: expressed in transfected cells; host or cells: COS7 cells (RIKEN CELL BANK RCB0539), transient, pcDNA3.1
T2 sequence (Q96S37 1-553): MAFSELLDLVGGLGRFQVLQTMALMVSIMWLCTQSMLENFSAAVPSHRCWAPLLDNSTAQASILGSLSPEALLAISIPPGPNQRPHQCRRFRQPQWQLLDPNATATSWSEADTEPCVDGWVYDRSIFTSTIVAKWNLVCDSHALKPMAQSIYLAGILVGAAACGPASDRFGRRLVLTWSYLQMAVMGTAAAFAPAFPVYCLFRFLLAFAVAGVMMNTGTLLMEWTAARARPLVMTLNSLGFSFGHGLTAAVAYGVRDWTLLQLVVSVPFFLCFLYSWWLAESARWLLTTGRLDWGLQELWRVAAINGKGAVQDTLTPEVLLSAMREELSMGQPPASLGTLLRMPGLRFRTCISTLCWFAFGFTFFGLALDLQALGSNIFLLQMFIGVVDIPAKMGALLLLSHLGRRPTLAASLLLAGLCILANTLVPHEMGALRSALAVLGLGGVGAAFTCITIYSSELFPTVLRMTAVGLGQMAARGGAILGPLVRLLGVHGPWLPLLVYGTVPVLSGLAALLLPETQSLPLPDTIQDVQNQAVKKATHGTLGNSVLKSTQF
Protocol: (1) Preparation of transiently human URAT1 expressing cells
Full length human URAT1 cDNA (NCBI Accession No. NM_144585) was subcloned into expression vector, pcDNA3.1 (Invitrogen). Human URAT1 expression vector was transfected into COS7 cells (RIKEN CELL BANK RCB0539) using Lipofectamine 2000 (Invitrogen). COS7 cells were seeded in collagen-coated 24 well plates (Beckton Dickinson) at 3×10^5 cells / well and cultured in D-MEM culture medium (Invitrogen) containing 10% fetal bovine serum (Sanko Junyaku) for 2 hours at 37° C. under the condition of 5% CO2. For 1 well, 2 μL of Lipofectamine 2000 was diluted in 50 μL of OPTI-MEM (Invitrogen) and allowed to stand at room temperature for 7 minutes (hereinafter referred to as Lipo2000-OPTI). For 1 well, 0.8 μg of human URAT1 expression vector was diluted in 50 μL of OPTI-MEM (Invitrogen) and combined gently with Lipo2000-OPTI. After standing at room temperature for 25 minutes, the mixture was added to COS7 cells at 100 μL/well. Furthermore, COS7 cells were cultured for 2 days at 37° C. under the condition of 5% CO2 and used for measuring inhibitory activity on the uptake.
(2) Preparation of test compounds
Test compounds were dissolved in DMSO (Wako pure chemical) at 10 mM concentration and then diluted to 2 times higher concentration than intended with pre-treatment buffer (125 mM sodium gluconate, 4.8 mM potassium gluconate, 1.2 mM potassium dihydrogen phosphate, 1.2 mM magnesium sulfate, 1.3 mM calcium gluconate, 5.6 mM glucose, 25 mM Hepes, pH 7.4). Pre-treatment buffer without test compounds was used for control. In addition, an equal volume of pre-treatment buffer containing ^14C-labeled uric acid (American Radiolabeled Chemicals, Inc.) was added to test compounds and control, and finally assay buffer including 20 μM uric acid was prepared.
(3) Method for measurement
All tests were performed on hot-plate at 37° C. Pre-treatment buffer and assay buffer were incubated at 37° C. and then used for assays. Medium was removed from plates, and 700 μL of pre-treatment buffer was added, and the cells were pre-incubated for 10 minutes. After repeating the same step, pre-treatment buffer was removed, and assay buffer was added at 400 μL/well. The uptake reaction was carried out for 5 minutes. After terminating the reaction, assay buffer was rapidly removed, and the cells were washed twice with addition of ice-cold pre-treatment buffer at 1.2 mL/well. Then, the cells were lysed by addition of 0.2 mol/L sodium hydroxide at 300 μL/well. The lysed solutions were transferred into Picoplate (PerkinElmer), and Microscinti 40 (PerkinElmer) was added at 600 μL/well. After mixing, the radioactivity was counted in a liquid scintillation counter (PerkinElmer). The radioactivity in COS7 cells not transfected with URAT1 expression vector was also counted under the same condition as control. As a result, it was shown that compounds of Examples 5, 8, 17, 18, 22, 40 and 55 have inhibitory activity of 50% or higher in a concentration of 10 μM.

male CD (SD) IGS rats = assay: Serum hypouricemic effect; assay type: in vivo; details: Rattus norvegicus; 1 mg/kg oral gavage, overnight fasted male rats, serum at 2 hours after administration; read-out: percent decrease in uric acid
Protocol: Test compounds at 1 mg/kg suspended in 0.5% methylcellulose solution were administered by oral gavage administration to overnight fasted male CD (SD) IGS rats (5-week-old, Charls River Japan). At 2 hours after administration, blood was collected under ether anesthesia from abdominal aorta, and serum was separated according to general method. Serum uric acid values were determined by use of uric acid measurement kit (Uric acid C-Test Wako: Wako pure chemical), and percent decrease in uric acid was calculated according to the formula described below. As a result, it was shown that compounds of Examples 2, 7, 10, 22, 23, 25, 37, 49, 50 and 58 have over 60% percent decrease in uric acid.
Percent decrease in uric acid (%)=(Serum uric acid values in control animals−Serum uric acid values in animals administered test compounds)×100/Serum uric acid values in control animals

Compound | IC50 [1] [nM] | inhibition at 10 µM (human URAT1) [%] | inhibition in vivo at 1 mg/kg (male CD (SD) IGS rats) [%]
Cc1cc2c(C#N)cc(-c3ccc(C(=O)O)c(O)c3)n2cc1F [Example 22] | 3 | ≥ 50 | > 60
N#Cc1cc(-c2ccc(C(=O)O)cc2)n2cc(F)cc(F)c12 [Example 40] | 14 | ≥ 50 | 

Continued by falling IC50 [1], values first:

IC50 [1] [nM] | inhibition at 10 µM (human URAT1) [%] | Compound | inhibition in vivo at 1 mg/kg (male CD (SD) IGS rats) [%]
10 | ≥ 50 | Cc1ccc2c(C#N)cc(-c3ccc(C(=O)O)cc3)n2c1 [Example 5] | 
6 | ≥ 50 | Cc1cc2c(C#N)cc(-c3ccc(C(=O)O)cc3)n2cc1F [Example 8] | 
6 | ≥ 50 | N#Cc1cc(-c2ccc(C(=O)O)c(O)c2)n2cc(F)cc(F)c12 [Example 55] | 
3 | ≥ 50 | Cc1ccn2c(-c3ccc(C(=O)O)c(O)c3)cc(C#N)c2c1 [Example 18] | 
